Six molecules from patent US9198426B2, “Use of 5 pyridin-4-yl-1,3-thiazoles for controlling phytopathogenic fungi” (Bayer Intellectual Property GmbH, priority 2008, dated 2015) can be followed below.

Marks after values point to notes of the source that are not given here. A value given as a limit tells only on which side of the number the result lay.

The nature of one data set: physchem. The data set is classed as physicochemical.
Another data set has as its system Fusarium proliferatum. The data set is described as follows: Production of fumonisin FB1 by Fusarium proliferatum (microtitre plates). The data set is classed as cell-based. As to conditions: 120 h, 5 days, 20° C., HPLC-MS/MS.
Another data set has as its system Fusarium graminearum. Briefly: microbe, parasite or virus in culture. The data set is classed as cell-based. As to conditions: 168 h, read-out: activity in the inhibition of DON/AcDON production.

As to `CCc1nc(-c2ccc(F)cc2)c(-c2ccncc2)s1` [Ex. 41, 4-[2-Ethyl-4-(4-fluorophenyl)-1,3-thiazol-5-yl]pyridine], the values for the chromatographic logP in the data set “physchem” (pH 2.3) and in “physchem” (pH 7.8) were 2.01 and 2.89, respectively. In addition, the inhibition at 50 µM in the data set with Fusarium proliferatum and with Fusarium graminearum was over 70% throughout.

In the case of `CCc1nc(-c2ccc(F)cc2)c(-c2ccnc(NC(=O)CCl)c2)s1` [compound 98], the log p was 3.29^[b] in the data set “physchem” (pH 2.7) and 3.32^[c]; in “physchem” (pH 7.8).

Take `CCc1nc(-c2ccc(F)cc2)c(-c2ccnc(NC(=O)CC(C)C)c2)s1` [compound 99]: the log p in the data set “physchem” (pH 2.7) is 3.91^[b]; in the data set “physchem” (pH 7.8), 4.04^[c];.

On to `CCc1nc(-c2ccc(F)cc2)c(-c2ccnc(NC(C)C)c2)s1` [compound 101], for which the log p in the data set “physchem” (pH 2.7) is 1.73^[b]; in “physchem” (pH 7.8), 4.11^[c];.

On to `C#CCN(C(C)=O)c1cc(-c2sc(CC)nc2-c2ccc(F)cc2)ccn1` [compound 102], for which the log p is 3.03^[b] in “physchem” (pH 2.7) and 3.02^[c]; in “physchem” (pH 7.8).

With `CCc1nc(-c2cccs2)c(-c2ccncc2)s1` [compound 103], the log p in “physchem” (pH 2.7) was 1.94^[b].

The chromatographic logP is a lipophilicity value derived from retention on a column.
